According to patent US20120288482A1, “THERAPEUTIC AGENT (Y-39983) FOR CORNEAL ENDOTHELIAL DYSFUNCTION” (priority 2009, published 2012):

Assays:
[1] = system: corneal endothelial wound; assay: Rabbit corneal endothelial wound model, topical instillation (Example 1); format: in vivo; conditions: for area of the unrepaired wound site (corneal endothelium wound area): 6 times a day, 46 hours after wound creation
Procedure: In this Example, 0.95 mM (0.03 w/v%) compound (I) instillation and 0.32 mM (0.01 w/v%) compound (I) instillation obtained by diluting the above instillation with the above-mentioned vehicle were used.
As a positive control substances, Y-27632 dihydrochloride (Wako Pure Chemical Industries, Co., Ltd., Cat. #253-00513) and fasudil hydrochloride hydrate injection (Eril (registered trade mark) drip intravenous injection, Asahi Kasei Pharma) were purchased, and Y-27632 and Fasudil were each adjusted to 10 mM with phosphate-buffered saline (PBS, Invitrogen, Cat. #14190). In addition, PBS was used as a negative control substance.
Male Japanese white rabbits (body weight 2.5-3.0 kg, 21 rabbits) were purchased from Biotek Co., Ltd. and used. They are kept in individual cages at 23±3° C. temperature, at 55±10% humidity and 12 hours artificial light cycle (lighting on; 8:00 a.m., lighting off; 8:00 p.m.). One hundred grams of solid food (Labo R stock; Nosan Corp.) are provided daily to each animal. Water is supplied by automatic watering apparatus.
3. Excision of Nictitating Membrane of Animal Before starting the test, the nictitating membrane of both eyes of the animal was excised. To be specific, each animal was set in a positioner, and the ocular surface was topically anesthetized by instillation of a topical anesthesia (Benoxil instillation 0.4%, Santen Pharmaceutical Co., Ltd.). Then, the root position of the nictitating membrane was pressed with a clamp for 30 sec, and compressing mark was cut with scissors. After excision of the nictitating membrane, the antibiotic ointment (tarivid eye ointment, Santen Pharmaceutical Co., Ltd.) was instilled to prevent infection. After 4 days from the excision of the nictitating membrane, animals confirmed to have no abnormality in the external eye including the excised site were used.
The corneal thickness of the right eye of each animal was measured with an ultrasonic pachymeter (manufactured by DGH Technologies Inc., DGH-500), and the animals were divided into 4 groups such that the corneal thickness of each group was equal. The animals used for each group were as follows. • 10 mM Y-27632 group=5 eyes • 0.32 mM compound (I) group=5 eyes • 0.95 mM compound (I) group=6 eyes • 10 mM Fasudil group=5 eyes • PBS group=21 eyes (left eye)
The animals were sytemically anesthetized by intramuscular administration of Ketalar muscular injection ([…], DAIICHI SANKYO COMPANY, LIMITED., 0.6 ml) and Celactal 2% Injection (Bayer, Ltd., 0.25 ml). Then, Benoxil instillation 0.4% (Santen Pharmaceutical Co., Ltd., one drop) was instilled and the eye was opened using a lid speculum.
A 7-mm diameter stainless dowel that had been cooled in liquid nitrogen was placed on the central cornea of both eyes of 21 animals for 15 sec. to produce an ice ball in the anterior chamber and dissociate corneal endothelial cells, whereby a corneal endothelial wound was produced.
For topical instillation, after wound creation, compound (I) instillation, Y-27632 instillation or Fasudil instillation was instilled to the right eye, and PBS was instilled to the left eye 6 times a day (4 times on the day of wound production) at 50 μL per instillation. Administration interval in one day was 2 hours. […]

[2] = system: rabbit corneal endothelial cells; assay: Production of cultured corneal endothelial cell sheet for transplantation, ZO-1 and Na+/K+ ATPase immunostaining (Example 7); format: cell-based; conditions: for coverage of the sheet with cells / expression of Na+/K+ ATPase / expression of ZO-1: 48 hours after seeding
Procedure: In this Example, rabbit corneal endothelial cells prepared in the same manner as in Example 4 were used.
In this Example, moreover, test substances and control substance prepared in the same manner as in Example 4 were used.
The rabbit corneal endothelial cells were seeded on Vitrigel™ (Asahi Glass) at a division ratio of 1:1, and a cultured corneal endothelial cell sheet for transplantation was produced. When producing the corneal endothelial cell sheet, 0.95 μM compound (I), 10 μM Y-27632 or 0.04% DMSO was added. The obtained corneal endothelial cell sheet was subjected to fluorescence immunostaining with ZO-1 and Na^+/K^+ ATPase, which are functional proteins of corneal endothelial cells, and expression was confirmed.
The corneal endothelial cell sheet was fixed with 95% ethanol (−30° C.) for 10 min, washed with PBS, and treated with 0.5% Triton X-100/PBS for 5 min. Then, it was treated with 1% BSA/PBS for 1 hour, and treated overnight with anti-ZO-1 antibody (Invitrogen, Cat. #339100) or anti-Na^+/K^+ ATPase antibody (Millipore, Cat. #C464.6). After washing with PBS, it was treated with Alexa-488 labeling secondary antibody for 1 hour. After washing with PBS, mounting medium (Vectashield (registered trade mark)) containing DAPI was added dropwise to the sheet, and the sheet was sealed with cover glass. The image was taken with a fluorescence microscope to confirm expression of ZO-1 and Na^+/K^+ ATPase. The immunostaining was performed both 48 hours and 14 days after the seeding (FIG. 10 and FIG. 11).

[3] = system: corneoscleral tissues; assay: Cell death suppression in cornea preserved in corneal storage solution (Example 10); format: cell-based, rabbit; conditions: 4° C.
Procedure: In this Example, test substances and control substances prepared in the same manner as in Example 4 were used. Both right and left eyeballs of 5 male Japanese white rabbits (Biotek Co., Ltd.) were removed, and corneoscleral tissues were prepared. One corneoscleral tissue was placed in a storage solution Optisol-GS (registered trade mark) (Bausch & Lomb, Inc) (control), and the other corneoscleral tissue was placed in Optisol-GS containing 0.95 μM compound (I). Similarly, corneoscleral tissues were prepared from another 5 male Japanese white rabbits, one corneoscleral tissue was placed in Optisol-GS (control), and the other corneoscleral tissue was placed in Optisol-GS containing 10 μM Y-27632. The samples containing each corneoscleral tissue were preserved at 4° C. Two or three weeks later, the corneoscleral tissues were stained with Hoechst (Hoechst 33342, Sigma, Cat. #B2261), PI (propidium iodide, Sigma, Cat. #P4170) and Annexin V (Annexin V-FITC, MBL, Cat. #4700-100), and the cells therein were indentified as living cells, dead cells and apoptotic cells. In addition, the various cells in the stained cornea were counted using ImageJ (ver.1.44i, NIH, http://imagej.nih.gov/ij), and the mean value and the standard deviation of 5 visual fields were determined. The various cell counts were statistically analyzed by the student's t-test.

Row | Compound | area of the unrepaired wound site (corneal endothelium wound area) ([1]; 10 mM instillation) | coverage of the sheet with cells ([2]; 10 μM) | expression of Na+/K+ ATPase ([2]; 10 μM) | expression of ZO-1 ([2]; 10 μM) | number of dead cells versus control ([3]; 10 μM in Optisol-GS) | area of the unrepaired wound site (corneal endothelium wound area) ([1]; 0.32 mM instillation) | area of the unrepaired wound site (corneal endothelium wound area) ([1]; 0.95 mM instillation) | wound area compared to the PBS instillation group ([1]; 0.95 mM instillation, Dunnett's test) | coverage of the sheet with cells ([2]; 0.95 μM) | expression of Na+/K+ ATPase ([2]; 0.95 μM) | expression of ZO-1 ([2]; 0.95 μM) | time in which a cultured corneal endothelial cell sheet for transplantation can be produced ([2]; from the addition to culture medium) | number of dead cells versus control ([3]; 0.95 μM in Optisol-GS, 2 weeks) | number of apoptotic cells versus control ([3]; 0.95 μM in Optisol-GS, 3 weeks) | number of dead cells versus control ([3]; 0.95 μM in Optisol-GS, 3 weeks)
1 | C[C@@H](N)[C@H]1CC[C@H](C(=O)Nc2ccncc2)CC1 [Y-27632, reference compound] | 1.1 mm^2 | partially uncovered with cells | found between cells in all | found between cells uniformly | only the number of dead cells decreased significantly | – | – | – | – | – | – | – | – | – | –
2 | C[C@@H](N)c1ccc(C(=O)Nc2ccnc3[nH]ccc23)cc1.Cl [compound (I), (R)-(+)-N-(1H-pyrrolo[2,3-b]pyridin-4-yl)-4-(1-aminoethyl)benzamide monohydrochloride] | – | – | – | – | – | 1.1 mm^2 | 0.4 mm^2 | statistically significant decrease in the wound area | cells were adhered to the whole surface of the sheet | found between cells in all | found between cells uniformly | 48 h | decreased significantly | decreased significantly | decreased significantly
